# According to patent US20180094232A1, “Methods For The Cryopreservation Of Mammalian Cells” (The General Hospital Corporation, priority 2009, published 2018):
# “Also recorded” adds a separate entry of the source. Where two headings read alike, the source gives them in different places.
# Key:
# [1] = tested on: murine embryonic stem (ES) cells; assay: Attachment efficiency of ES cells post vitrification; assay type: cell-based; conditions: 0.5 M trehalose, 2 M PROH, alone or combined; QMC, liquid nitrogen; day 1
# Description: On the day of experiment, the attached cells were lightly trypsinized for 3-5 minutes and collected. The cells were pelleted at 100×g for 5 minutes and resuspended in cold stem cell media supplemented with 1.5 M 1,2-propanediol (Sigma, St Louis, Mo.) and incubated on ice for 10 minutes. The cells were then spun down at 100×g for 3-5 minutes and resuspended in 1 ml first vitrification solution for 10 minutes. The cells were then spun down at 100×g for 3-5 minutes and resuspended in the second solution at 10×10^6/ml for another 10 minutes. The first vitrification solution was made of ES cell maintenance medium supplemented with 1.5 M 1,2-propanediol, while the second solution was supplemented with 2 M 1,2-propanediol and 0.5 M trehalose (Ferro Pfanstiehl Laboratories, Inc., Waukegan, Ill.). Cells were also cryopreserved using either 0.5 M trehalose or 2 M 1,2-propanediol only for comparison. […]
# Cell attachment and growth was determined by counting the number of cells per field under a 10× objective. […] The attachment efficiency was calculated as the ratio of the total number of cells per field of a cryopreserved sample to that of the control non-frozen sample at day 1. To assess the proliferation of the attached cells, the total number of cells per field was further monitored for 4 days.
# [2] = Vitrification of CPA laden solutions: opacity after plunging the device into liquid nitrogen; assay type: physicochemical
# Text: One convenient way for determining non-vitrification is the appearance of opacity as a result of ice formation when freezing solutions in a straw. If there is no visible opacity, it is called apparent vitrification. Although opacity could be easily identified in the traditional plastic straw using the naked eye, it is very difficult to do so for the quartz micro-capillary due to its small dimension. Therefore, an experimental setup shown in FIG. 10 was designed for visualization of opacity during cooling by directing two focused lights on the capillary held against a dark background for all the devices shown in FIG. 1 except the stainless steel micro-capillary. […] This setup was used to determine the threshold (minimum) CPA concentration required to completely avoid opacity during cooling. […] Various total CPA concentrations from 12% to 30% by volume with 2% increments were studied using both the open pulled straw and the thin walled quartz micro-capillary. Since 0.2-1 M sucrose or trehalose has been used in essentially all studies for cryopreservation of mammalian oocytes by both slow freezing and vitrification, further studies were also performed using the quartz micro-capillary for solutions with 0.5 M sucrose or trehalose plus 1.5 M, 2.0 M, and 2.5 M PROH, respectively. The solutions can be loaded into the open pulled straw and quartz micro-capillaries by capillary action while it can be expelled out of the capillaries by using a micro-syringe attached with a soft PEP polymer needle tip to push from the end of the capillaries with a bigger opening.
# primary rat hepatocytes = assay: Hepatocyte viability post-cryopreservation in QMC, exclusion of trypan blue; assay type: cell-based; conditions: 1.5 M PROH, 0.3 M sucrose, or both, immediately post-cryopreservation
# Description: The vitrification technique was also tested using primary liver cells (hepatocytes) due to their sensitivity to stress, and importance in liver tissue engineering and availability. The cell viability of hepatocytes was determined immediately post-cryopreservation in quartz micro-capillaries (QMC) in the presence of either no CPA; 0.3 M sucrose; 1.5 M 1,2-propanediol (PROH); 1.5 M PROH and 0.3 M sucrose; or 2.0 M PROH and […]. The number of viable cells was determined in both vitrified samples as well as non-vitrified controls (i.e., no freezing). Cell viability was quantified by the exclusion of trypan blue. […] There was only ˜35% survival for cells loaded with 1.5 M PROH prior to cryopreservation. Sucrose (0.3 M) was then added to the cryopreservation solution with 1.5-2 M PROH. […] When 0.3 M sucrose was added to the cryopreservation solution, the immediate viability jumped to ˜75%.
# mouse oocytes = assay: Survival and morphology of mouse oocytes after vitrification in quartz capillaries; assay type: cell-based
# Description: The 6-week-old B6D2F1 female mice were superovulated with 7.5 IU of pregnant mare serum gonadotrophin (Sigma-Aldrich, St. Louis, Mo., USA) and 7.5 IU of human chorionic gonadotrophin (Sigma-Aldrich) given by intraperitoneal injections 48 h apart. Fourteen hours after human chorionic gonadotrophin injection, females were anaesthetized with avertin (Sigma-Aldrich) then killed by cervical dislocation and their oviducts were removed. The cumulus-oocytecomplex was released from the ampullary region of each oviduct by puncturing the oviduct with a 27-gauge needle. Cumulus cells were removed by exposure to hyaluronidase (80 IU/ml) (Irvine Scientific, Santa Ana, Calif., USA) for 3 min and washed three times with human tubal fluid (HTF) medium (Irvine Scientific) with 10% fetal bovine serum (FBS; Gibco, Carlsbad, Calif., USA). Oocytes were transferred and cultured in HTF medium (Quinn et al., 1995) containing 10% FBS at 37° C. and 5% CO2 in air until they were vitrified.
# All cryoprotectant solutions were filter-sterilized and stored at 4° C. prior to use. The base cryoprotectant solutions used were PrOH (Sigma-Aldrich) and trehalose (Ferro Pfanstiehl Laboratory, Waukegan, Ill., USA). The concentrations and types of cryoprotectants used were similar to those used in traditional slow-freezing protocols for human oocytes (Gook and Edgar, 2007) and are not typically vitrifiable. For vitrification, isolated mature oocytes were placed into HTF medium supplemented with 10% FBS. Two vitrification protocols using a HEPES-buffered physiological salt solution (FHM; Specialty Media, Lavallette, N.J., USA) (Lawitts and Biggers, 1993) as a base medium were tested. In the first protocol, the oocytes were equilibrated in a 30 μl droplet of 0.75 mol/l PrOH in FHM20 (FHM medium containing 20% FBS) for 5 min, then transferred to a 30 μl droplet of 0.5 mol/l trehalose+1.5 mol/l PrOH in FHM20 for 5 min.
# In the second protocol, oocytes were equilibrated in a 30 μl droplet of 0.75 mol/l PrOH in FHM20 for 5 min, then equilibrated in a 30 μl droplet of 1.5 mol/l PrOH in FHM20 for 5 min before being transferred to a 0.5 mol/l trehalose 2.0 mol/l PrOH in FHM20, for 5 min. The QC straws (The Charles Supper Company, USA) used for vitrification have an outer and inner diameter of approximately 0.2 and 0.18 mm, respectively, and a wall thickness of 0.01 mm (He et al., 2008). After exposure to the vitrification solution, the oocytes were then loaded into the 200 μm QC and plunged into liquid or slush nitrogen for comparison. For warming, the vitrified oocytes were immediately immersed in a holding medium containing 0.2 mol/l trehalose in […]phosphate-buffered saline (PBS; Gibco) at 37° C. for 1 minute. […]
# [3] = cited from earlier work
# [4] = Critical cooling rate to achieve vitrification (Vcc) from Boutron's semi-empirical theory and DSC K4; assay type: physicochemical
# Text: The critical cooling rate to achieve vitrification (Vcc) is a function of the concentration of cryoprotectant. It has been extensively studied in the case of 1,2-propanediol and other alcohols with relevance in cryobiology, although mainly in the range of cooling rates achievable by differential scanning calorimetry (DSC) techniques. However, it is possible to obtain estimates of the critical cooling rates at other […]. The presence of sugars in equimolar concentrations has shown to have no effect on Vcc in the case of monosaccharides and little effect in the case of sucrose for the concentration used in these studies (0.3 M)(Kuleshova et al., Cryobiology 38: 199-130, 1999). The Vcc can be inferred from Boutron's semi-empirical theory of glass forming tendency (Boutron, Cryobiology 23:88-102, 1986); it is given by:
# To is the initial temperature of crystallization and xg is the amount of ice formed at the critical cooling rate. Many studies in the literature consider a solution to be vitrified when xg≦10^−6 (Liu and McGrath, Proc. 2005 IEEE Eng. Med. Biol. 27th Ann. Conference, p. 7501-7504, 2005). K4 is a constant dependent of the solution and can be determined by DSC. Although there is not data for K4 in the available literature for our solution, some estimation can be done. The values of K4 for 40%, 37.5% and 35% (w/w) of aqueous solutions of 1,2 propanediol are 24.1° C./min, 54.1° C./min and 151° C./min (Ren et al., Cryobiology 31:47-56, 1994). These values of K4 give rise to Vcc values of 8.0×10^2° C./min, 1.8×10^3° C./min and 5.0×10^3° C./min, respectively. So, a tentative value of […] for 1.8 M of 1,2-propanediol is 10^4° C./min. […] The exponential fitting of the data is justified by the theory (Ren et al., supra).
# [5] = both open pulled straw and quartz micro-capillary
compound,measurement,setting,value
OC[C@H]1O[C@H](O[C@H]2O[C@H](CO)[C@@H](O)[C@H](O)[C@H]2O)[C@H](O)[C@@H](O)[C@@H]1O [trehalose],attachment efficiency (normalized to control),[1],minimum amount of cells can attach
"OCCO [Ethylene glycol (EG), ethylene glycol]",threshold concentration for the complete absence of opacity,[2],~4 M
"CC(O)CO (stereo not drawn) [1,2-Propanediol (PROH), 1,2-propanediol]","cell survival, immediate viability",primary rat hepatocytes,~35%
same,Surviving oocytes,"mouse oocytes; liquid nitrogen, 1.5 mol/l PrOH + 0.5 mol/l trehalose in FHM20, QC",18/40 (45.0) %
same,Surviving oocytes,"mouse oocytes; liquid nitrogen, 2.0 mol/l PrOH + 0.5 mol/l trehalose in FHM20, QC",19/40 (47.5) %
same,Surviving oocytes,"mouse oocytes; slush nitrogen, 1.5 mol/l PrOH + 0.5 mol/l trehalose in FHM20, QC",36/40 (90.0) %
same,Surviving oocytes,"mouse oocytes; slush nitrogen, 2.0 mol/l PrOH + 0.5 mol/l trehalose in FHM20, QC",28/40 (70.0) %
same,attachment efficiency (normalized to control),[1],minimum amount of cells can attach
same,appearance of the loaded quartz micro-capillary after plunging into liquid nitrogen,"[2]; 1 M (7% v) 1,2-propanediol in FHM",opaque; also recorded: whitish appearance
same,appearance of the loaded quartz micro-capillary after plunging into liquid nitrogen,"[2]; 2 M (14% v) 1,2-propanediol in FHM",clear appearance
same,threshold concentration lower than that of ethylene glycol (EG),[2]; [5],~5 % v
same,threshold concentration lower than that of the combination of EG and PROH in a 1:1 ratio,[2]; [5],2.5 % v
same,threshold concentration for the complete absence of opacity,"[2]; micro-capillary, liquid nitrogen",~2 M
same,K4,[3]; 35% (w/w) aqueous solution,151 ° C./min
same,K4,[3]; 37.5% (w/w) aqueous solution,54.1 ° C./min
same,K4,[3]; 40% (w/w) aqueous solution,24.1 ° C./min
same,"K4, tentative value",[4]; 1.8 M,~10^4 ° C./min
same,critical cooling rate to achieve vitrification (Vcc),[4]; 35% (w/w) aqueous solution,5.0×10^3 ° C./min
same,critical cooling rate to achieve vitrification (Vcc),[4]; 37.5% (w/w) aqueous solution,1.8×10^3 ° C./min
same,critical cooling rate to achieve vitrification (Vcc),[4]; 40% (w/w) aqueous solution,8.0×10^2 ° C./min
OC[C@H]1O[C@@](CO)(O[C@H]2O[C@H](CO)[C@@H](O)[C@H](O)[C@H]2O)[C@@H](O)[C@@H]1O [sucrose],"cell survival, immediate viability",primary rat hepatocytes,less than 10%
